Earlier results as cited in paper PMC2677997 (Bioorganic & medicinal chemistry, 2009).

Test system: SNARE cleavage in neuronal cells
Conditions: cited from earlier work

## O=C(/C=C/c1ccc(Cl)cc1Cl)NO [Compound 2, 2,4-dichlorocinnamic hydroxamic acid]
  activity in a cellular assay: inactive or cytotoxic
